Test results taken from the NIST ThermoML archive (doi:10.1021/je900387e).

Assay: xn = mol fraction of the nth substance listed
Details: Liquid, Pycnometric method

CCCCBr [1-bromobutane] + O=C=O
Details | mass density [kg/m3]
332.4 K, 10370 kPa, x1 = 0.1495 | 915
332.4 K, 10440 kPa, x1 = 0.0461 | 587
332.4 K, 10440 kPa, x1 = 0.0683 | 677
332.4 K, 10510 kPa, x1 = 0.0989 | 783
332.4 K, 10520 kPa, x1 = 0.0461 | 595
332.4 K, 10560 kPa, x1 = 0.1495 | 918
332.4 K, 10570 kPa, x1 = 0.0683 | 686
332.4 K, 10590 kPa, x1 = 0.0461 | 603
332.4 K, 10650 kPa, x1 = 0.0989 | 788
332.4 K, 10710 kPa, x1 = 0.0683 | 694
332.4 K, 10720 kPa, x1 = 0.0461 | 615
332.4 K, 10750 kPa, x1 = 0.1495 | 921
332.4 K, 10820 kPa, x1 = 0.0989 | 793
332.4 K, 10870 kPa, x1 = 0.0683 | 703
332.4 K, 10880 kPa, x1 = 0.0461 | 627
332.4 K, 10940 kPa, x1 = 0.1495 | 924
332.4 K, 10990 kPa, x1 = 0.0989 | 798
332.4 K, 11050 kPa, x1 = 0.0683 | 712
332.4 K, 11070 kPa, x1 = 0.0461 | 640
332.4 K, 11120 kPa, x1 = 0.1495 | 927
332.4 K, 11180 kPa, x1 = 0.0989 | 804
332.4 K, 11240 kPa, x1 = 0.0683 | 721
332.4 K, 11270 kPa, x1 = 0.0461 | 654
332.4 K, 11310 kPa, x1 = 0.1495 | 930
332.4 K, 11390 kPa, x1 = 0.0989 | 808
332.4 K, 11460 kPa, x1 = 0.0683 | 730
332.4 K, 11510 kPa, x1 = 0.0461 | 668
332.4 K, 11530 kPa, x1 = 0.1495 | 933
332.4 K, 11600 kPa, x1 = 0.0989 | 814
332.4 K, 11720 kPa, x1 = 0.0683 | 739
332.4 K, 11730 kPa, x1 = 0.1495 | 936
332.4 K, 11780 kPa, x1 = 0.0461 | 683
332.4 K, 11830 kPa, x1 = 0.0989 | 819
332.4 K, 11970 kPa, x1 = 0.1495 | 939
332.4 K, 11980 kPa, x1 = 0.0461 | 689
332.4 K, 12000 kPa, x1 = 0.0683 | 749
332.4 K, 12060 kPa, x1 = 0.0989 | 825
332.4 K, 12190 kPa, x1 = 0.1495 | 942
332.4 K, 12220 kPa, x1 = 0.0461 | 703
332.4 K, 12330 kPa, x1 = 0.0461 | 708
332.4 K, 12330 kPa, x1 = 0.0683 | 759
332.4 K, 12330 kPa, x1 = 0.0989 | 830
332.4 K, 12450 kPa, x1 = 0.1495 | 945
332.4 K, 12620 kPa, x1 = 0.0989 | 836
332.4 K, 12650 kPa, x1 = 0.1495 | 948
332.4 K, 12670 kPa, x1 = 0.0683 | 770
332.4 K, 12920 kPa, x1 = 0.1495 | 951
332.4 K, 12930 kPa, x1 = 0.0989 | 842
332.4 K, 13080 kPa, x1 = 0.0683 | 780
332.4 K, 13170 kPa, x1 = 0.1495 | 954
332.4 K, 13250 kPa, x1 = 0.0989 | 847
332.4 K, 13470 kPa, x1 = 0.1495 | 958
332.4 K, 13540 kPa, x1 = 0.0683 | 791
332.4 K, 13600 kPa, x1 = 0.0989 | 853
332.4 K, 13750 kPa, x1 = 0.1495 | 961
332.4 K, 13980 kPa, x1 = 0.0989 | 859
332.4 K, 14040 kPa, x1 = 0.1495 | 964
332.4 K, 14050 kPa, x1 = 0.0683 | 802
332.4 K, 14320 kPa, x1 = 0.1495 | 967
332.4 K, 14360 kPa, x1 = 0.0989 | 865
332.4 K, 14630 kPa, x1 = 0.1495 | 970
332.4 K, 14640 kPa, x1 = 0.0683 | 814
332.4 K, 14810 kPa, x1 = 0.0989 | 871
332.4 K, 14910 kPa, x1 = 0.1495 | 973
332.4 K, 14960 kPa, x1 = 0.0683 | 820
332.4 K, 15090 kPa, x1 = 0.1495 | 975
335.9 K, 10180 kPa, x1 = 0.0683 | 589
335.9 K, 10200 kPa, x1 = 0.0683 | 591
335.9 K, 10210 kPa, x1 = 0.0683 | 593
335.9 K, 10240 kPa, x1 = 0.0683 | 597
335.9 K, 10250 kPa, x1 = 0.0683 | 601
335.9 K, 10310 kPa, x1 = 0.0683 | 607
335.9 K, 10380 kPa, x1 = 0.0683 | 614
335.9 K, 10450 kPa, x1 = 0.0683 | 620
335.9 K, 10540 kPa, x1 = 0.0683 | 627
335.9 K, 10610 kPa, x1 = 0.0683 | 634
335.9 K, 10700 kPa, x1 = 0.0683 | 641
335.9 K, 10790 kPa, x1 = 0.0683 | 649
335.9 K, 10940 kPa, x1 = 0.0683 | 660
335.9 K, 11140 kPa, x1 = 0.0683 | 672
335.9 K, 11350 kPa, x1 = 0.0683 | 684
335.9 K, 11590 kPa, x1 = 0.0683 | 697
335.9 K, 11870 kPa, x1 = 0.0683 | 710
335.9 K, 12340 kPa, x1 = 0.0683 | 728
335.9 K, 12930 kPa, x1 = 0.0683 | 747
335.9 K, 13690 kPa, x1 = 0.0683 | 767
335.9 K, 14350 kPa, x1 = 0.0683 | 783
335.9 K, 14890 kPa, x1 = 0.0683 | 794
335.9 K, 14990 kPa, x1 = 0.0683 | 797
335.9 K, 15110 kPa, x1 = 0.0683 | 800
337.4 K, 10000 kPa, x1 = 0.1495 | 872
337.4 K, 10190 kPa, x1 = 0.1495 | 876
337.4 K, 10210 kPa, x1 = 0.0461 | 479
337.4 K, 10240 kPa, x1 = 0.0989 | 714
